Here are results for 21 molecules from patent publication US10604535B2, “Compounds, compositions and methods” (Denali Therapeutics Inc., priority 2016, dated 2020).

For data set [1], the system named is P-gp (MDR1). Kind of data set: MDCKII-MDR1 permeability, efflux ratio. It is filed as in vitro ADME. As to conditions: dog, MDCK-MDR1, pH 7.4, MDCKII-MDR1, 3 μM, read-out: ER MDR1. Here is the method: The blood brain barrier (BBB) separates circulating blood from the extracellular fluid of the central nervous system (CNS). The passive membrane permeability (Papp) and the P-gp (P-glycoprotein) substrate efflux potential were determined using the MDCKII-MDR1 cell line as an in vitro model of the effective permeability of a compound through the BBB. A bidirectional assay (Apical to Basolateral (A→B) and Basolateral to Apical (B→A)), in the absence and in the presence of GF120918 (a P-gp inhibitor) was conducted using pre-plated MDCKII-MDR1 cells (Corning HTS Transwell-96) obtained from SOLVO Biotechnology. The assay was run at 3 μM for 90 min (minutes) in triplicate using a HBSS+12.5 mM HEPES pH 7.4 transport buffer. Following incubation of samples from donor and receiver, wells were removed and measured by LC-MS/MS. Samples were extracted by protein precipitation with acetonitrile containing an appropriate internal standard (IS) having a known mass and molecular weight. The precipitate was centrifuged for 10 min at 3000 rpm (revolutions per minute). The supernatants were then collected, diluted if necessary, and injected on to the LC-MS/MS system. […] Papp (apparent permeability expressed in nm/sec [nanometer/second]) values were calculated according to the following equation: […]
Where dQ/dt is the permeability rate, C0 is the initial concentration in the donor solution (expressed as IS ratio), A and B are the surface areas of the filter (the surface area of the cell monolayer).
Monolayer efflux ratios (ER) were derived using the following equation: […]

In data set [2] the target is T1, GST-hRIPK1 (8-327) (Homo sapiens (Human), UniProt Q13546). Put plainly: Fluorescent Polarization Binding (FP Binding) assay.
The test system of data set [3] is human cryopreserved hepatocytes. Kind of data set: Metabolic stability (hepatocytes). To be noted: human cryopreserved hepatocytes.
Description: The metabolic stability of compounds was evaluated in human cryopreserved hepatocytes (BioreclamationlVT, NY, USA) in duplicate. Test articles (or controls) were added to a 24-well incubation plate (Becton Dickinson Labware, USA) containing 0.5×10^6 hepatocytes/mL in suspension. The plate was held at 37° C. and agitated with constant orbital shaking (orbital speed at 350 rpm). At each time point (0, 5, 10, 15, 20, 30, 45, 60, 90, 120, 150 and 180 min) a Tecan Evo robot aspirated 50 μL of the incubation mixture and 100 μL of acetonitrile containing internal standard to quench the reaction. […] Samples were centrifuged (3000 rpm for 10 minutes) and the plate sealed prior to injection onto an LC-MS/MS system.
The appropriate parent/daughter ions were monitored for the test article and IS with the LC-MS/MS system. The intrinsic clearance (Clint; expressed μL/min/million cells) was determined from the first order elimination constant (k, min^−1) of test article decay and the volume of the incubation. […] The intrinsic organ CL was then converted to the hepatic clearance (CLhep) using the well-stirred model as shown below, where Qh is human hepatic blood flow.
Hepatic clearance is expressed as mL/min/kg. The hepatic clearance relates to the flow of blood through the liver that is completely cleared of the compound.
For data set [4], the target named is T1, GST-hRIPK1 (8-327). Put plainly: ADP-Glo kinase assay. It is filed as biochemical. How it is done: GST-hRIPK1 (8-327) enzyme was generated by Proteros GmbH by Baculovirus expression system.
Test compounds were diluted in DMSO and 0.1 μL of solution was dispensed to each well of a 384-well white solid microplate. The assay buffer was 50 mM HEPES pH 7.5, 50 mM NaCl, 30 mM MgCl2. The buffer was supplemented with 0.02% CHAPS, 0.01% of Pluronic F127, 0.1 mg/mL BSA and 1 mM DTT. MnCl2, 5 mM, was included in the assay buffer on the day of the experiment. The enzymatic reaction comprised 1.5 μg/mL GST-hRIPK1 (8-327) and 50 μM ATP for receptor interacting protein kinase 1 and 15 μM ATP. 5 μL of enzyme and 5 μL of ATP were added to the plate at twice the final assay concentration and incubated at room temperature for 3 hours. Following this reaction, 10 μL of ADP-Glo reagent (Promega) was added to each well and incubated for 40 min at room temperature. This stops the kinase reaction and depletes any remaining ATP. 20 μL of ADP-Glo detection reagent was then added to each well and incubated at room temperature for at least 15 minutes. The detection reagent converts ADP to ATP and introduces luciferase and luciferin to detect ATP. The luminescence is then measured with the Envision (PerkinElmer) plate reader. Test compound inhibition was expressed as percent inhibition of internal assay controls. For concentration response curves, normalized data is fit and IC50 determined using XL-fit (IDBS) for Excel. The IC50 were averaged to determine a mean value, for a minimum of two independent experiments.
Test compound inhibition was expressed as percent inhibition of internal assay controls. For concentration response curves, normalized data is fit and IC50 determined using XL-fit (IDBS) for Excel. The IC50 were averaged to determine a mean value, for a minimum of two independent experiments.
(In general: ADP-Glo turns the ADP formed in a reaction into a luminescent signal.)

The conditions of data set [5]: male, Sprague-Dawley Crl:CD(SD), in vivo, iv.
Description: (§1) The protein binding in plasma was determined using a Rapid Equilibrium Dialysis Device (Thermo Scientific RED Device) or 96-well dialyzer apparatus (HTDialysis LLC). […] If required, plasma samples were pre-incubated (2 hours at 37° C.) with diisopropyl fluorophosphate (DFP) at the final concentration of 100 μM to prevent compound degradation due to amide hydrolysis. Appropriate volumes of spiked samples along with blank phosphate buffer were added to either device and incubated at 37° C. for a total of 5 hours with agitation at 500 rpm. Following incubation, an equal aliquot of dialysed matrix (plasma or buffer) is added to an equal volume of the opposite blank matrix such that the volume of buffer to plasma are equal. Mixed matrix samples were extracted by protein precipitation using acetonitrile containing the appropriate IS. Samples were then centrifuged for 10 min at 2800 rpm. Supernatants were collected and diluted and then injected on to an HPLC-MS/MS or UPLC-MS/MS system. Samples were analyzed by monitoring the appropriate parent/daughter ion transitions for the test and control compounds. The peak area ratios were used to measure test item concentrations. The fraction unbound (Afu) was determined as the ratio of the peak area ratio in buffer divided by the peak area ratio in plasma.
(§2) The PK properties of test articles were determined in male Sprague-Dawley Crl:CD(SD) rats, male Beagle dogs and male cynomolgus monkeys. Studies were conducted to the highest standards of animal welfare in accordance with national legislation and under approval of the internal animal care and use committees.
(§3) Compounds were administered by IV bolus to animals following an overnight fast. […] The formulations were administered at dose volumes ranging from 0.5-2 mL/kg. The IV dose ranged from 0.5-1 mg/kg.
(§4) Following dose administration, 8-9 serial blood samples were collected over 24 hours. Samples were mixed with anticoagulant and placed on wet ice prior to processing. Plasma was harvested following centrifugation, extracted using protein precipitation with acetonitrile containing IS. The processed supernatant was analyzed using UPLC or LC-MS/MS using specific parent/daughter ion pairs for the test article and IS. Plasma concentrations were determined using a calibration curve prepared using known concentrations of analyte. Pharmacokinetic parameters utilizing measured concentrations were calculated using Phoenix WinNonlin. The unbound plasma clearance was calculated as the ratio of the total body clearance divided by the fraction unbound in plasma.
The conditions of data set [6]: male, cynomolgus monkey, in vivo, iv.
Description: as §1, §2, §3, §4

T1 sequence (Q13546 8-327): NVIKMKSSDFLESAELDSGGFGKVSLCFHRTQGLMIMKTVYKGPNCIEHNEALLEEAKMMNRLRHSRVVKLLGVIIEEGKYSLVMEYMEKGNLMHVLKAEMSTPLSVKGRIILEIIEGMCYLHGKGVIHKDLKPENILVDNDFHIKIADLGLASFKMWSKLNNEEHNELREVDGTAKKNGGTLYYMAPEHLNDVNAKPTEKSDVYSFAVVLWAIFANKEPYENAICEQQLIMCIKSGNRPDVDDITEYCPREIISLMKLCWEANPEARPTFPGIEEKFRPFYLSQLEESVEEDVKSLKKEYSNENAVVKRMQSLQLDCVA

As to `CN1C(=O)[C@@H](NC(=O)c2nnc(Cc3ccccc3)[nH]2)[C@H]2C[C@H]2c2ccccc21` [Example 46A, 5-benzyl-N-((2S)-4-methyl-3-oxo-1,1a,2,3,4,8b-hexahydrobenzo[b]cyclopropa[d]azepin-2-yl)-4H-1,2,4-triazole-3-carboxamide], the efflux ratio at 90 min, 3 μM in data set [1] came out at 16. Further, the IC50 (usually the concentration that gives 50% inhibition) in data set [2] is 0.0001 to 1 µM. For the same molecule, the “Human hepatocyte CLhep Avg” value in data set [3] was 16 mL/min/kg.
`Cc1nnc(C(=O)N[C@H]2COc3ccccc3N(C)C2=O)[nH]1` [Example 25, (S)-5-methyl-N-(5-methyl-4-oxo-2,3,4,5-tetrahydrobenzo[b][1,4]oxazepin-3-yl)-4H-1,2,4-triazole-3-carboxamide] gave an IC50 in data set [4] greater than 10 µM.
`C[C@H]1Oc2cccnc2N(C)C(=O)[C@H]1NC(=O)c1ncn(Cc2cccc(C#N)c2)n1` [Example 172, 1-(3-cyanobenzyl)-N-((2R,3S)-2,5-dimethyl-4-oxo-2,3,4,5-tetrahydropyrido[3,2-b][1,4]oxazepin-3-yl)-1H-1,2,4-triazole-3-carboxamide] yielded an IC50 in data set [2] of 0.0001 to 1 µM. Besides, in data set [3], the “Human hepatocyte CLhep Avg” value turned out to be 5.3 mL/min/kg. The “Rat unbound CL” value in data set [5] is 65 mL/min/kg.
In turn, `CN1CCCC[C@H](NC(=O)c2nnc(Cc3ccccc3)[nH]2)C1=O` [Example 23, (S)-5-benzyl-N-(1-methyl-2-oxoazepan-3-yl)-4H-1,2,4-triazole-3-carboxamide] came in with an IC50 in data set [4] greater than 10 µM.
For the molecule `O=C(N[C@@H]1C(=O)Nc2c(F)cc(F)cc2[C@@H]2C[C@H]12)c1nnc(Cc2ccccc2)[nH]1` [Example 83A, 5-benzyl-N-((1aS,2S,8bR)-5,7-difluoro-3-oxo-1,1a,2,3,4,8b-hexahydrobenzo[b]cyclopropa[d]azepin-2-yl)-4H-1,2,4-triazole-3-carboxamide], the “Cyno unbound CL” value in data set [6] stood at 82 mL/min/kg. Besides, the “Human hepatocyte CLhep Avg” value in data set [3] stood at 1.0 mL/min/kg.
As for `CN1C(=O)[C@@H](NC(=O)c2cnn3c2[C@@H](c2ccccc2)CC3)COc2ccccc21` [Example 17, (R)—N—((S)-5-methyl-4-oxo-2,3,4,5-tetrahydrobenzo[b][1,4]oxazepin-3-yl)-4-phenyl-5,6-dihydro-4H-pyrrolo[1,2-b]pyrazole-3-carboxamide], in data set [4], the IC50 is greater than 10 µM.
The molecule `CCN1C(=O)[C@@H](NC(=O)c2cc(Cc3ccccc3)on2)COc2ccccc21` [Example 19, (S)-5-benzyl-N-(5-ethyl-4-oxo-2,3,4,5-tetrahydrobenzo[b][1,4]oxazepin-3-yl)isoxazole-3-carboxamide] had an IC50 in data set [4] of 1 to 10 µM.
In the case of `CN1C(=O)[C@@H](NC(=O)c2nnc(Cc3ccccc3)[nH]2)[C@H]2C[C@H]2c2cccnc21` [Example 75A, 5-benzyl-N-((1aS,2S,8bR)-4-methyl-3-oxo-1,1a,2,3,4,8b-hexahydrocyclopropa[d]pyrido[2,3-b]azepin-2-yl)-4H-1,2,4-triazole-3-carboxamide], the “Cyno unbound CL” value in data set [6] worked out at 93 mL/min/kg. In addition, in data set [3], the “Human hepatocyte CLhep Avg” value was 9.1 mL/min/kg. The “Rat unbound CL” value in data set [5] was 91 mL/min/kg.
In turn, `CN1CC(NC(=O)c2nnc(Cc3ccccc3)[nH]2)CCc2ccccc21` (centres unmarked) [Example 20, 5-benzyl-N-(1-methyl-2,3,4,5-tetrahydro-1H-benzo[b]azepin-3-yl)-4H-1,2,4-triazole-3-carboxamide] displayed an IC50 in data set [4] of 1 to 10 µM.
In data set [4], `O=C(N[C@H]1COC[C@H]2CCCN2C1=O)c1cc(Cc2ccccc2)on1` [Example 21, 5-benzyl-N-((4S,9aR)-5-oxohexahydro-1H,3H-pyrrolo[2,1-c][1,4]oxazepin-4-yl)isoxazole-3-carboxamide] returned an IC50 greater than 10 µM.
For the molecule `C[C@H]1Oc2cccnc2N(C)C(=O)[C@H]1NC(=O)c1nnc(Cc2ccccc2)o1` [Example 134, 5-Benzyl-N-((2R,3S)-2,5-dimethyl-4-oxo-2,3,4,5-tetrahydropyrido[3,2-b][1,4]oxazepin-3-yl)-1,3,4-oxadiazole-2-carboxamide], the “Cyno unbound CL” value in data set [6] is listed as 140 mL/min/kg. This molecule returned an IC50 in data set [2] of 0.0001 to 1 µM. For the same molecule, the “Human hepatocyte CLhep Avg” value in data set [3] is on record as 9.0 mL/min/kg. Further, in data set [5], the “Rat unbound CL” value worked out at 100 mL/min/kg.
Take `O=C(N[C@H]1COC[C@@H]2CCCN2C1=O)c1nnc(Cc2ccccc2)[nH]1` [Example 27, 5-benzyl-N-((4S,9aS)-5-oxohexahydro-1H,3H-pyrrolo[2,1-c][1,4]oxazepin-4-yl)-4H-1,2,4-triazole-3-carboxamide]: the IC50 in data set [4] is greater than 10 µM.
In data set [4], `CN1C(=O)[C@@H](NC(=O)c2ccc(C#N)n2C)COc2ccccc21` [Example 24, (S)-5-cyano-1-methyl-N-(5-methyl-4-oxo-2,3,4,5-tetrahydrobenzo[b][1,4]oxazepin-3-yl)-1H-pyrrole-2-carboxamide] came in with an IC50 greater than 10 µM.
Molecule `O=C(NC1CCc2ccccc2CC1)c1cc(Cc2ccccc2)on1` [Example 15, 5-benzyl-N-(6,7,8,9-tetrahydro-5H-benzo[7]annulen-7-yl)isoxazole-3-carboxamide] gave a half-inhibitory concentration (IC50) in data set [4] greater than 10 µM.
Consider `C[C@H]1Oc2cccnc2N(C)C(=O)[C@H]1NC(=O)c1nn(Cc2ccccc2)cc1F` [Example 92, 1-benzyl-N-((2R,3S)-2,5-dimethyl-4-oxo-2,3,4,5-tetrahydropyrido[3,2-b][1,4]oxazepin-3-yl)-4-fluoro-1H-pyrazole-3-carboxamide], for which, in data set [2], the IC50 was in the range of 0.0001 to 1 µM. Moreover, the “Rat unbound CL” value in data set [5] stood at 420 mL/min/kg.
Turning to `CC(=O)N[C@H]1COc2ccccc2N(C)C1=O` [Example 26, (S)—N-(5-methyl-4-oxo-2,3,4,5-tetrahydrobenzo[b][1,4]oxazepin-3-yl)acetamide], the IC50 in data set [4] is greater than 10 µM.
On the same count and under the same terms, the value for `CN1C(=O)[C@@H](NCC(=O)NCc2ccccc2)COc2ccccc21` [Example 18, (S)—N-benzyl-2-((5-methyl-4-oxo-2,3,4,5-tetrahydrobenzo[b][1,4]oxazepin-3-yl)amino)acetamide] was greater than 10 µM.
Turning to `C[C@H]1Oc2cccnc2N(C)C(=O)[C@H]1NC(=O)c1nnc(Cc2ccccc2)[nH]1` [Example 94, 5-benzyl-N-((2R,3S)-2,5-dimethyl-4-oxo-2,3,4,5-tetrahydropyrido[3,2-b][1,4]oxazepin-3-yl)-4H-1,2,4-triazole-3-carboxamide], the “Cyno unbound CL” value in data set [6] came out at 40 mL/min/kg. The same molecule yielded an IC50 in data set [2] of 0.0001 to 1 µM. The “Human hepatocyte CLhep Avg” value in data set [3] is reported as 4.9 mL/min/kg. In addition, in data set [5], the “Rat unbound CL” value was 44 mL/min/kg.
The molecule `Cc1cc(C(=O)N[C@H]2COc3ccccc3N(C)C2=O)n(Cc2ccccc2)n1` [Example 16, (S)-1-benzyl-3-methyl-N-(5-methyl-4-oxo-2,3,4,5-tetrahydrobenzo[b][1,4]oxazepin-3-yl)-1H-pyrazole-5-carboxamide] displayed an IC50 in data set [4] greater than 10 µM.
Consider `CN1C(=O)[C@@H](NC(=O)c2nnc(Cc3ccccc3)o2)COc2cccnc21` [Example 146, (S)-5-benzyl-N-(5-methyl-4-oxo-2,3,4,5-tetrahydropyrido[3,2-b][1,4]oxazepin-3-yl)-1,3,4-oxadiazole-2-carboxamide], for which the “Cyno unbound CL” value in data set [6] amounted to 39 mL/min/kg. Also, the IC50 in data set [2] was 0.0001 to 1 µM. The “Human hepatocyte CLhep Avg” value in data set [3] is reported as 4.2 mL/min/kg. For the same molecule, in data set [5], the “Rat unbound CL” value worked out at 61 mL/min/kg.
As to `O=C(N[C@H]1COC[C@@H]2CCCN2C1=O)c1cc(Cc2ccccc2)on1` [Example 22, 5-benzyl-N-((4S,9aS)-5-oxohexahydro-1H,3H-pyrrolo[2,1-c][1,4]oxazepin-4-yl)isoxazole-3-carboxamide], the IC50 in data set [4] is greater than 10 µM.
